“Also recorded” adds a separate entry of the source.
Key:
BJ fibroblasts = assay: in vitro transdifferentiation of fibroblasts to induced endothelial cells (iECs); format: cell-based, human; settings: fibroblasts exposed during transdifferentiation protocol
Text: Innate immune activation is required for transdifferentiation. […] 131 (3): p. 300-9). iECs generated from this protocol manifest high fidelity for endothelial lineage. They incorporate acetylated LDL (FIG. 2B), form tubular networks (FIG. 2C), have similar transcriptomes as genuine endothelial cells, and increase capillary density and perfusion when injected into the ischemic hindlimb of the mouse (FIG. 2D) (Sayed, N., et al., Circulation, 2015. 131 (3): p. 300-9). This protocol can be utilized to study the role of O-GlcNAcylation in transdifferentiation in vitro.
O-GlcNAcylation is required for in vitro transdifferentiation. To define if the elevation of O-GlcNAcylation is required for transdifferentiation, fibroblasts were exposed to Thiamet G (TMG) (an OGA inhibitor that enhances O-GlcNAcylation) or DON (an inhibitor for GFAT that acts upstream in the hexosamine biosynthesis pathway and reduces O-GlcNAcylation). The number of iECs generated during transdifferentiation is increased when fibroblasts are exposed to TMG and decreased when exposed to DON (FIG. 5A). […] The role of O-GlcNAcylation of specific epigenetic regulars e.g., HIRA during transdifferentiation can also be addressed.
To define if the elevation of O-GlcNAcylation is required for transdifferentiation, inhibitors of O-GlcNAcylation including OSMI (an inhibitor for OGT) and DON (an inhibitor for GFAT that acts upstream in the hexosamine biosynthesis pathway and reduces O-GlcNAcylation) or an activator of O-GlcNAcylation. Thiamet G (TMG) (an OGA inhibitor that enhances O-GlcNAcylation), were delivered to BJ fibroblasts undergoing transdifferentiation. The number of CD31 expressing iECs generated during transdifferentiation decreases when exposed to OSMI or DON and increases when fibroblasts are exposed to TMG (FIG. 17B). Then OGT or OGA were knocked down using shRNA in the BJ fibroblasts (FIG. 17C) and performed transdifferentiation protocol in vitro.

[1] = system: ischemic hindlimb mice model; assay: hindlimb ischemia recovery in WT C57BL/6 mice, laser doppler imaging; format: in vivo, mouse; settings: TMG 10 mg/kg 0, 1, 2 days post-surgery; older mice (around 20 weeks)
Description: O-GlcNAcylation manipulations regulated recovery from tissue ischemia. To determine if the change in O-GlcNAcylation can modulate limb ischemia recovery, and contributes to vascular recovery, WT C57BL/6 mice were treated with the O-GlcNAcylation inhibitor, OSMI4, or O-GlcNAcylation enhancer, TMG 0, 1, 2 days post-surgery. Age is an important factor that determines recovery, and younger mice are known to have a more robust angiogenic response as compared with older mice. Accordingly, younger mice (between 8 to 12 weeks) were used to assess the impairment of angiogenesis by OSMI (which reduces O-GlcNAcylation). Older mice (around 20 weeks) were used to assess the enhancement of angiogenesis by TMG (which increases O-GlcNAcylation). […] It will be determined whether this beneficial effect is mediated by increased DNA accessibility and enhanced transdifferentiation.
To determine if O-GlcNAcylation manipulations can modulate the overall effect of vascular recovery from limb ischemia. WT C57BL/6 mice were treated with the O-GlcNAcylation inhibitor. OSMI4 (10 mg/kg), or O-GlcNAcylation enhancer. TMG (10 mg/kg) 0, 1, 2 days post-surgery (FIG. 19A).

ischemic hindlimb model = ischemic hindlimb model in fibroblast lineage tracing Fsp1-Cre: R26R-EYFP mice; format: in vivo, mouse; settings: ischemic hindlimb
Description: Using established transdifferentiation protocol and metabolomics profiling to assess the global metabolic changes during transdifferentiation. […] To determine the role of this metabolite in transdifferentiation, the effect of Thiamet G was assessed, an inhibitor of OGA, which enhances O-GlcNAcylation. Thiamet G increased transdifferentiation efficiency in vitro. In a fibroblast lineage tracing mice, Fsp1-Cre: R26R-EYFP mice, Thiamet G increased tissue O-glycnacylation, increased capillary density and limb perfusion, and increased the number of fibroblasts transdifferentiating into endothelial cells (i.e. FSP+CD31+ cell) in an ischemic hindlimb model.
Angiogenic transdifferentiation in limb ischemia. A fibroblast lineage tracing mouse model (Fsp1-Cre: R26R-EYFP) was used to detect transdifferentiation in vivo in a murine model of limb ischemia (Meng, S., et al., Circulation, 2020. 142 (17): p. 1647-1662). […] This population is abolished when the mice are treated with anti-inflammatory drugs, such as dexamethasone. Intriguingly, the disappearance of these cells is associated with a reduction in perfusion recovery and worsening clinical scores. Similar results are achieved when inflammatory signaling is impaired, as in Fsp1-Cre: Rela flox/flox mice. In these animals, NFκB signaling is blocked in the Fsp1+fibroblasts, associated with a dramatic reduction in transdifferentiated fibroblasts (i.e. YFP+CD144+ cells), and impaired perfusion (Meng. S., et al., Circulation, 2020. 142 (17): p. 1647-1662). […] Cluster 8 produced angiogenic cytokines, whereas Cluster 5 expressed genes associated with EC identity (i.e CD144). But only Cluster 5 could generate EC-like networks in Matrigel whereas other fibroblasts, including Cluster 8 fibroblasts, formed nodal structures typical of fibroblasts in Matrigel. The data support the idea that transdifferentiation may occur in vivo with tissue ischemia, and is dependent on inflammatory signaling. This model can be used to study the contribution of O-GlcNAcylation in transdifferentiation and limb ischemia recovery in vivo. A similar lineage tracing approach can be used with tamoxifen-inducible Col1A2-Cre/ERT: R26R-tdTomato mouse strain to study the contribution of O-GlcNAcylation in transdifferentiation and limb ischemia recovery in vivo.
To determine if O-GlcNAcylation enhances revascularization through transdifferentiation, fibroblasts lineage tracing Fsp1-Cre: R26R-EYFP mice strain were utilized where it was previously observed the in situ transdifferentiation phenomenon (FIG. 20A). In this model, all the fibroblasts expressing Fsp1 (fibroblast-specific protein1) are marked with YFP. With this model, a significant increase in the FSP-expressing cell progeny in the ischemic limb was identified compared with the sham-operated limb 3 days after the femoral artery ligation was perform (FIG. 20A) and compare the YFP+ cells over the different time points (FIG. 20A). The percentage of the YFP+CD31+CD11b-cell population which is considered the transdifferentiation population was analyzed further. […] To determine the role of the O-GlcNAcylation on the transdifferentiation, the Fsp1-Cre: R26R-EYFP mice that are undergoing vascular recovery with OSMI were treated, and the transdifferentiation population in the limb muscle tissue 7 days post-surgery was analyzed.

| SMILES | iEC yield (number of CD31 expressing iECs generated during transdifferentiation) (BJ fibroblasts) | iEC yield (number of CD31 expressing iECs generated during transdifferentiation) (BJ fibroblasts; listed as Thiamet G) | recovery of blood flow post femoral artery ligation (revascularization) [1] | capillary density (ischemic hindlimb model) | limb perfusion (ischemic hindlimb model) | number of fibroblasts transdifferentiating into endothelial cells (FSP+CD31+ cell) (ischemic hindlimb model) | tissue O-glycnacylation (ischemic hindlimb model) |
| --- | --- | --- | --- | --- | --- | --- | --- |
| [N-]=[N+]=CC(=O)CC[C@H](N)C(=O)O [DON] | decreases; also recorded: impair |  |  |  |  |  |  |
| CCNC1=NC2C(OC(CO)C(O)C2O)S1 (centres unmarked) [TMG, 2-(ethylamino)-5-(hydroxymethyl)-5,6,7,7a-tetrahydro-3aH-pyrano[3,2-d][1,3]thiazole-6,7-diol] | increases | increased | enhanced recovery; also recorded: enhances | increased | increased | increased | increased |

Reference: US20250114337A1, “METHODS FOR VASCULAR REGENERATION AND WOUND TREATMENT” (THE METHODIST HOSPITAL, priority 2022, published 2025)
